Results as given in patent US11370798B2 (Vertex Pharmaceuticals Incorporated, priority 2012, dated 2022).

system: HCT116 colorectal cancer cells; test: Cisplatin sensitization assay (96 h cell viability MTS); format: cell-based; settings: compound and Cisplatin added simultaneously, Cisplatin sensitization value;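 further: Test-compound concentration that lowers the Cisplatin IC50 by a set fold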
Method in brief: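 Viability read by MTS (1 h at 37° C) after 96 h co-exposure at 37° C, 5% CO2. Test compound and cisplatin were dosed simultaneously in a full concentration matrix, each 2-fold serially diluted from 10 μM final; sensitization values binned in μM.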

SMILES	Cisplatin Sensitization Assay
Nc1nn2cc(F)cnc2c1C(=O)Nc1cnccc1N1CCC(C(=O)N2CCCC2)CC1 [I-G-83, 2-amino-6-fluoro-N-(4-(4-(pyrrolidine-1-carbonyl)piperidin-1-yl)pyridin-3-yl)pyrazolo[1,5-a]pyrimidine-3-carboxamide]	+++ (Cisplatin sensitization value of <0.02 μM)
CN(C)CCCN(C)C(=O)C1CCN(c2c(F)cncc2NC(=O)c2c(N)nn3cc(F)cnc23)CC1 [I-G-16, 2-amino-N-(4-(4-((3-(dimethylamino)propyl)(methyl)carbamoyl)piperidin-1-yl)-5-fluoropyridin-3-yl)-6-fluoropyrazolo[1,5-a]pyrimidine-3-carboxamide]	+++ (Cisplatin sensitization value of <0.02 μM)
Nc1nn2cc(F)cnc2c1C(=O)Nc1cnccc1N1CCN2C(=O)CC[C@@H]2C1 [I-N-258, (R)-2-amino-6-fluoro-N-(4-(6-oxohexahydropyrrolo[1,2-a]pyrazin-2(1H)-yl)pyridin-3-yl)pyrazolo[1,5-a]pyrimidine-3-carboxamide]	++ (Cisplatin sensitization value>0.02 μM but <0.2 μM)
CN1CCN(C(=O)C2(C)CCN(c3c(F)cncc3NC(=O)c3c(N)nn4cc(F)cnc34)CC2)CC1 [I-G-54, 2-amino-6-fluoro-N-(5-fluoro-4-(4-methyl-4-(4-methylpiperazine-1-carbonyl)piperidin-1-yl)pyridin-3-yl)pyrazolo[1,5-a]pyrimidine-3-carboxamide]	+++ (Cisplatin sensitization value of <0.02 μM)
Nc1nn2cc(F)cnc2c1C(=O)Nc1cnccc1N1CCN([C@@H]2CCOC2)CC1 [I-N-10, (R)-2-amino-6-fluoro-N-(4-(4-(tetrahydrofuran-3-yl)piperazin-1-yl)pyridin-3-yl)pyrazolo[1,5-a]pyrimidine-3-carboxamide]	++ (Cisplatin sensitization value>0.02 μM but <0.2 μM)
CN1CCN(c2c(F)cncc2NC(=O)c2c(N)nn3cc(CC#N)cnc23)CC1 [I-N-80, 2-amino-6-(cyanomethyl)-N-(5-fluoro-4-(4-methylpiperazin-1-yl)pyridin-3-yl)pyrazolo[1,5-a]pyrimidine-3-carboxamide]	++ (Cisplatin sensitization value>0.02 μM but <0.2 μM)
Nc1nn2cc(F)cnc2c1C(=O)Nc1cncc(F)c1N1CCN2C(=O)CCCC2C1 (stereo not drawn) [I-N-277, 2-amino-6-fluoro-N-(5-fluoro-4-(6-oxohexahydro-1H-pyrido[1,2-a]pyrazin-2(6H)-yl)pyridin-3-yl)pyrazolo[1,5-a]pyrimidine-3-carboxamide]	+++ (Cisplatin sensitization value of <0.02 μM)
CC(C)(O)CN1CCN(c2c(F)cncc2NC(=O)c2c(N)nn3cc(F)cnc23)CC1 [I-N-139, 2-amino-6-fluoro-N-(5-fluoro-4-(4-(2-hydroxy-2-methylpropyl)piperazin-1-yl)pyridin-3-yl)pyrazolo[1,5-a]pyrimidine-3-carboxamide]	+++ (Cisplatin sensitization value of <0.02 μM)
Nc1nn2cc(F)cnc2c1C(=O)Nc1cncc(F)c1N1CCC(n2ccnc2)CC1 [I-N-288, N-(4-(4-(1H-imidazol-1-yl)piperidin-1-yl)-5-fluoropyridin-3-yl)-2-amino-6-fluoropyrazolo[1,5-a]pyrimidine-3-carboxamide]	+++ (Cisplatin sensitization value of <0.02 μM)
Cc1ccc(-c2ccncc2NC(=O)c2c(N)nn3cc(F)cnc23)cn1 [I-C-22, 2-amino-6-fluoro-N-(6-methyl-[3,4′-bipyridin]-3′-yl)pyrazolo[1,5-a]pyrimidine-3-carboxamide]	++ (Cisplatin sensitization value>0.02 μM but <0.2 μM)
CN1CC2(CCN(c3ccncc3NC(=O)c3c(N)nn4cc(F)cnc34)CC2)OC1=O [I-N-216, 2-amino-6-fluoro-N-(4-(3-methyl-2-oxo-1-oxa-3,8-diazaspiro[4.5]decan-8-yl)pyridin-3-yl)pyrazolo[1,5-a]pyrimidine-3-carboxamide]	+++ (Cisplatin sensitization value of <0.02 μM)
CN1CCN(C(=O)N2CCC(c3ccncc3NC(=O)c3c(N)nn4cc(F)cnc34)CC2)CC1 [I-C-17, 2-amino-6-fluoro-N-(4-(1-(4-methylpiperazine-1-carbonyl)piperidin-4-yl)pyridin-3-yl)pyrazolo[1,5-a]pyrimidine-3-carboxamide]	++ (Cisplatin sensitization value>0.02 μM but <0.2 μM)
COC1CCN(C2CCN(c3ccncc3NC(=O)c3c(N)nn4cc(Cl)cnc34)CC2)C1 (stereo not drawn) [I-N-95, 2-amino-6-chloro-N-(4-(4-(3-methoxypyrrolidin-1-yl)piperidin-1-yl)pyridin-3-yl)pyrazolo[1,5-a]pyrimidine-3-carboxamide]	++ (Cisplatin sensitization value>0.02 μM but <0.2 μM)
CN1CCN(c2ccncc2NC(=O)c2c(N)nn3cc(Cl)cnc23)CC1(C)C [I-N-53, 2-amino-6-chloro-N-(4-(3,3,4-trimethylpiperazin-1-yl)pyridin-3-yl)pyrazolo[1,5-a]pyrimidine-3-carboxamide]	++ (Cisplatin sensitization value>0.02 μM but <0.2 μM)
CN1CCN(c2c(F)cncc2NC(=O)c2c(N)nn3cc(Cl)cnc23)CC1 [I-N-14, 2-amino-6-chloro-N-(5-fluoro-4-(4-methylpiperazin-1-yl)pyridin-3-yl)pyrazolo[1,5-a]pyrimidine-3-carboxamide]	+++ (Cisplatin sensitization value of <0.02 μM)
CN1CCCCC1C(=O)N1CCN(c2c(F)cncc2NC(=O)c2c(N)nn3cc(F)cnc23)CC1 (stereo not drawn) [I-N-214, 2-amino-6-fluoro-N-(5-fluoro-4-(4-(1-methylpiperidine-2-carbonyl)piperazin-1-yl)pyridin-3-yl)pyrazolo[1,5-a]pyrimidine-3-carboxamide]	++ (Cisplatin sensitization value>0.02 μM but <0.2 μM)
Nc1nn2cc(Cl)cnc2c1C(=O)Nc1cnccc1N1CCC(N2CCC23COC3)CC1 [I-N-109, N-(4-(4-(6-oxa-1-azaspiro[3.3]heptan-1-yl)piperidin-1-yl)pyridin-3-yl)-2-amino-6-chloropyrazolo[1,5-a]pyrimidine-3-carboxamide]	+++ (Cisplatin sensitization value of <0.02 μM)
CN1CCN(c2c(NC(=O)c3c(N)nn4cc(F)cnc34)cncc2C(F)F)CC1 [I-N-111, 2-amino-N-(5-(difluoromethyl)-4-(4-methylpiperazin-1-yl)pyridin-3-yl)-6-fluoropyrazolo[1,5-a]pyrimidine-3-carboxamide]	++ (Cisplatin sensitization value>0.02 μM but <0.2 μM)
CN(C)CCNC(=O)C1CCN(c2c(F)cncc2NC(=O)c2c(N)nn3cc(F)cnc23)CC1 [I-G-30, 2-amino-N-(4-(4-((2-(dimethylamino)ethyl)carbamoyl)piperidin-1-yl)-5-fluoropyridin-3-yl)-6-fluoropyrazolo[1,5-a]pyrimidine-3-carboxamide]	+++ (Cisplatin sensitization value of <0.02 μM)
CCOc1ccncc1NC(=O)c1c(N)nn2cc(CC#N)cnc12 [I-O-28, 2-amino-6-(cyanomethyl)-N-(4-ethoxypyridin-3-yl)pyrazolo[1,5-a]pyrimidine-3-carboxamide]	+++ (Cisplatin sensitization value of <0.02 μM)
Nc1nn2cc(F)cnc2c1C(=O)Nc1cnccc1N1CCN2[C@@H](CCS2(=O)=O)C1 [I-N-247, (S)-2-amino-N-(4-(1,1-dioxidotetrahydro-2H-isothiazolo[2,3-a]pyrazin-5(3H)-yl)pyridin-3-yl)-6-fluoropyrazolo[1,5-a]pyrimidine-3-carboxamide]	+++ (Cisplatin sensitization value of <0.02 μM)
CCOc1ccncc1NC(=O)c1c(N)nn2cc(Cl)cnc12 [I-O-56, 2-amino-6-chloro-N-(4-ethoxypyridin-3-yl)pyrazolo[1,5-a]pyrimidine-3-carboxamide]	+++ (Cisplatin sensitization value of <0.02 μM)
CN1CCN(C2CCN(c3ccncc3NC(=O)c3c(N)nn4cc(Cl)cnc34)CC2)CC1 [I-N-97, 2-amino-6-chloro-N-(4-(4-(4-methylpiperazin-1-yl)piperidin-1-yl)pyridin-3-yl)pyrazolo[1,5-a]pyrimidine-3-carboxamide]	+++ (Cisplatin sensitization value of <0.02 μM)
Cc1cncc(NC(=O)c2c(N)nn3cc(F)cnc23)c1N1CCC(C(=O)N2CCNCC2)CC1 [I-G-56, 2-amino-6-fluoro-N-(5-methyl-4-(4-(piperazine-1-carbonyl)piperidin-1-yl)pyridin-3-yl)pyrazolo[1,5-a]pyrimidine-3-carboxamide]	+++ (Cisplatin sensitization value of <0.02 μM)
Cn1nccc1-c1ccncc1NC(=O)c1c(N)nn2cc(F)cnc12 [I-C-57, 2-amino-6-fluoro-N-(4-(1-methyl-1H-pyrazol-5-yl)pyridin-3-yl)pyrazolo[1,5-a]pyrimidine-3-carboxamide]	+++ (Cisplatin sensitization value of <0.02 μM)
CN1CCN(C(=O)C2CCN(c3c(F)cncc3NC(=O)c3c(N)nn4cc(F)cnc34)C2)CC1 (stereo not drawn) [I-N-191, 2-amino-6-fluoro-N-(5-fluoro-4-(3-(4-methylpiperazine-1-carbonyl)pyrrolidin-1-yl)pyridin-3-yl)pyrazolo[1,5-a]pyrimidine-3-carboxamide]	+ (Cisplatin sensitization value>0.2 μM but <5 μM)
Nc1nn2cc(F)cnc2c1C(=O)Nc1cnccc1N1CCN(S(=O)(=O)C2CCOCC2)CC1 [I-N-177, 2-amino-6-fluoro-N-(4-(4-((tetrahydro-2H-pyran-4-yl)sulfonyl)piperazin-1-yl)pyridin-3-yl)pyrazolo[1,5-a]pyrimidine-3-carboxamide]	+++ (Cisplatin sensitization value of <0.02 μM)
